Measurements published in article PMC6479711, “Chemical Constituents of Anacardium occidentale as Inhibitors of Trypanosoma cruzi Sirtuins” (Molecules, 2019).
Read-outs that look alike come from different tables or passages of the source.

How the values were obtained:
[1] = tested on: Trypomastigote forms of T. cruzi (Y strain); test: Activity against trypomastigotes (viable parasite count); type: cell-based, Trypanosoma cruzi; details: for EC50: read-out: Trypomastigote EC50 ± SEM
Procedure: All experiments were performed with the Y strain of T. cruzi. Trypomastigote forms of T. cruzi were obtained from the supernatant of infected LLC-MK2 cells and maintained in DMEM supplemented with 10% FBS and Penicillin-Streptomycin (100 U/mL) (all from Gibco/Life Technologies) at 37 °C with 5% CO2.
Trypomastigotes were incubated in 96-well plates (2 × 10^6 cells/mL) in DMEM, in the presence or absence of the compounds at different concentrations for 24 h. […] Each compound concentration was tested in triplicate, and three independent experiments were performed. The reference drug, benznidazole, was used as the positive control.

[2] = tested on: intracellular amastigotes of T. cruzi in infected hFIB; test: In vitro T. cruzi infection assay (intracellular amastigotes in hFIB, high content imaging); type: cell-based, Trypanosoma cruzi; details: read-out: Amastigote EC50 ± SEM
Procedure: All experiments were performed with the Y strain of T. cruzi. […] The culture was washed with saline solution and infected with trypomastigotes (10 parasites:1 host cell). Following 24 h of incubation, the non-internalized parasites were removed by washing with saline solution, and fresh medium, with or without compounds at different concentrations, was added to the culture before the incubations proceeded for 72 h. Cells were then fixed and stained by the addition of 50 μL of a solution containing 4% paraformaldehyde and 4 μM Draq5 DNA dye (BioStatus, Shepshed, UK) per well. Plates were imaged in an Operetta High Content Imaging System (PerkinElmer, Waltham, MA, USA) confocal microscope using a 10X air objective. Nine images were collected from each well for reliable statistical analysis. The percentage of intracellular parasites was determined and compared to the negative control, and compound antiparasitic activity was also expressed as EC50. The reference drug, benznidazole, was used as the positive control at 50 µM. Each drug concentration was carried out in triplicate.

[3] = tested on: Human primary skin fibroblasts (hFIB); test: Host cell toxicity (AlamarBlue); type: cell-based; details: for hFIB CC50 ± SEM: hFIB viability 72 h after treatment
Procedure: (§1) Human primary skin fibroblasts (hFIB) were obtained from patient skin biopsy and cultured in Dulbecco’s Modified Eagle Medium (DMEM) supplemented with 10% fetal bovine serum (FBS) and Penicillin-Streptomycin (0.2 U/mL) (all from Gibco/Life Technologies, Grand Island, NY, USA). The cells were seeded on 96-well plates at 3 × 10^4 cells/mL and treated with the drugs for 72 h of incubation time. Following the treatments, cells were washed with saline solution twice, and cell viability was determined by the AlamarBlue assay (Thermo Fisher Scientific, Carlsbad, CA, USA), according to the manufacturer’s instructions. Colorimetric readings were performed after 24 h at 570 and 600 nm. Fifty-percent cytotoxic concentration (CC50) values were calculated using data points gathered from three independent experiments.

[4] = Host cell toxicity (AlamarBlue); type: cell-based, human; details: human, hFIB viability 72 h after treatment, read-out: hFIB CC50 ± SEM
Procedure: as §1

TcSir2rp1 = TcSir2rp1 (Trypanosoma cruzi, UniProt Q4DVL9); test: TcSir2rp1 deacetylase activity assay (fluorogenic peptide, NAD+); type: biochemical; details: recombinant enzyme; 30 min pre-incubation; sirtuin activity determined 4 h after incubation; read-out: TcSir2rp1 EC50 ± SEM
TcSir2rp1, sequence (Q4DVL9 entry or part of it): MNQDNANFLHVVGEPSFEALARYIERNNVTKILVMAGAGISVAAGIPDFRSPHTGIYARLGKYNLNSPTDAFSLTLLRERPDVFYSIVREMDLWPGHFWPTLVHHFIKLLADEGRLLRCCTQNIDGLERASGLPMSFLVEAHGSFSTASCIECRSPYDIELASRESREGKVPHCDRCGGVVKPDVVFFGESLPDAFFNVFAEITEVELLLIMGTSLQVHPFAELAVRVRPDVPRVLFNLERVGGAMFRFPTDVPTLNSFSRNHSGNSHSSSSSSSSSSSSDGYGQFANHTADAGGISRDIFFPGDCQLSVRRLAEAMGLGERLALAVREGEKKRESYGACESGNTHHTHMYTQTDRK
Procedure: Deacetylase assays were performed from the protocol established previously by [8]. In summary, the reaction was performed in two steps. In the first step, a synthetic peptide as the substrate (Abz-Gly-Pro-acetyl-Lys-Ser-Gln-EDDnp, where Abz is ortho-aminobenzoic acid and EDDnp is N-[2,4-dinitrophenyl]ethylenediamine) was dissolved in 50 µL of 25 mM Tris-HCl (pH 8.0), 137 mM NaCl, 2.7 mM KCl, and 1 mM MgCl2 containing 0.6 mM NAD^+ (Sigma-Aldrich). TcSir2rp1 or TcSir2rp3 were added and the reactions performed for 4 h at 30 °C. In the inhibition experiments, the enzyme was pre-treated for 30 min at room temperature with the indicated compounds and the addition of the substrate started the reaction. In the second step, the reactions were stopped with 50 µL of a solution containing 12 mM nicotinamide in 100 mM NaCl and 50 mM Tris-HCl (pH 8.0), in the absence or presence of 0.6 mg/mL trypsin (Sigma-Aldrich). After further incubation for 15 min, the fluorescence at 420 nm was read (excitation, 320 nm) in a SpectraMax M3 plate reader (Molecular Devices, Sunnyvale, CA, USA).

TcSir2rp3 = TcSir2rp3 (Trypanosoma cruzi, UniProt Q4E5B9, K2R); test: TcSir2rp3 deacetylase activity assay (fluorogenic peptide, NAD+); type: biochemical
TcSir2rp3, sequence (Q4E5B9 whole entry K2R): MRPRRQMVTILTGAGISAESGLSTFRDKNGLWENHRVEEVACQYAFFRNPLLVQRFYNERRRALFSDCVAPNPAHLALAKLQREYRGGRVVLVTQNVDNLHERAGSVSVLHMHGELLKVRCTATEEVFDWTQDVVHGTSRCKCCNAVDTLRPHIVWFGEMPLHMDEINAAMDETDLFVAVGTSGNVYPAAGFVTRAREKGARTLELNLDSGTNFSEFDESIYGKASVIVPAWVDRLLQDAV
Procedure: Recombinant TcSir2rp3 was obtained as described previously by. The TcSir2rp3 gene was amplified from the genomic DNA of the T. cruzi Y strain using the oligonucleotides TcSir2rp3_BamHI_F_5′-[…] AGG-3′ and TcSir2rp3_XhoI_R_5′-[…]-3′ and cloned into pET28a (Novagen, Itapira, Brazil). The recombinant vector was used to transform ArcticExpress DE3 bacteria (Agilent Technologies) and protein was expressed by induction with 0.1 mM IPTG at 12 °C.
Deacetylase assays were performed from the protocol established previously by. In summary, the reaction was performed in two steps. In the first step, a synthetic peptide as the substrate (Abz-Gly-Pro-acetyl-Lys-Ser-Gln-EDDnp, where Abz is ortho-aminobenzoic acid and EDDnp is N-[2,4-dinitrophenyl]ethylenediamine) was dissolved in 50 µL of 25 mM Tris-HCl (pH 8.0), 137 mM NaCl, 2.7 mM KCl, and 1 mM MgCl2 containing 0.6 mM NAD^+ (Sigma-Aldrich). TcSir2rp1 or TcSir2rp3 were added and the reactions performed for 4 h at 30 °C. In the inhibition experiments, the enzyme was pre-treated for 30 min at room temperature with the indicated compounds and the addition of the substrate started the reaction. […] After further incubation for 15 min, the fluorescence at 420 nm was read (excitation, 320 nm) in a SpectraMax M3 plate reader (Molecular Devices, Sunnyvale, CA, USA).

[5] = tested on: amastigote forms of T. cruzi in infected hFIB; test: In vitro drug combination of compound 2 and benznidazole in infected hFIB (Chou-Talalay CI); type: cell-based; details: Trypanosoma cruzi, 72 h, read-out: EC50 ± SD, alone
Procedure: The culture was washed with saline solution and infected with trypomastigotes (10 parasites:1 host cell). Following 24 h of incubation, the non-internalized parasites were removed by washing with saline solution, and fresh medium, with or without compounds at different concentrations, was added to the culture before the incubations proceeded for 72 h. Cells were then fixed and stained by the addition of 50 μL of a solution containing 4% paraformaldehyde and 4 μM Draq5 DNA dye (BioStatus, Shepshed, UK) per well. Plates were imaged in an Operetta High Content Imaging System (PerkinElmer, Waltham, MA, USA) confocal microscope using a 10X air objective. Nine images were collected from each well for reliable statistical analysis. The percentage of intracellular parasites was determined and compared to the negative control, and compound antiparasitic activity was also expressed as EC50. The reference drug, benznidazole, was used as the positive control at 50 µM. Each drug concentration was carried out in triplicate.

[6] = Y strain, 24 h after incubation with compounds
[7] = infected hFIB, 72 h after treatment
[8] = Trypanosoma cruzi, 72 h, infected hFIB, 72 h after treatment
[9] = human primary skin fibroblasts (hFIB)

| Molecule | EC50 [2, 7] [µM] | EC50 [2, 8] [µM] | SI (selectivity index), ratio of CC50 (hFIB) to EC50 (amastigote) [3] | Trypomastigote EC50 ± SEM [1, 6] | EC50 (TcSir2rp1) [µM] | EC50 (TcSir2rp3) [µM] | hFIB CC50 ± SEM [3] | CC50 at 72 h [4, 9] [µM] | other results |
| --- | --- | --- | --- | --- | --- | --- | --- | --- | --- |
| 3-(8Z)-8-Pentadecen-1-ylphenol [Compound 4] | 15.3 ± 2 |  |  |  |  |  |  |  | EC50 [1, 6]: 43.5 ± 2.32 µM; CC50 [3]: 45.47 ± 0.27 µM |
| C=CC/C=C\C/C=C\CCCCCCCc1cc(O)cc(O)c1 [Compound 1, 5-(8Z,11Z)-8,11,14-Pentadecatrien-1-yl-1,3-benzenediol] |  | 11.8 ± 0.4 | 4 |  |  |  |  |  | EC50 ([1]; Trypanosoma cruzi, 24 h): 23.36 ± 0.12 µM; CC50 at 72 h [4]: 47.17 ± 0.1 µM |
| CCCCCC/C=C\CCCCCCCc1cccc(O)c1C(=O)O [Compound 6, 2-Hydroxy-6-(8Z)-8-pentadecenylbenzoic acid] | 42.4 ± 5.11 | ~40 |  | no effect | 16.2 ± 4.88 | 7.41 ± 0.65 | not toxic | > 100 |  |
| O=C(Cn1ccnc1[N+](=O)[O-])NCc1ccccc1 [Benznidazole, reference compound] |  |  | >32 |  |  |  |  | > 100 | EC50 [5]: 2.17 ± 0.09 µM; EC50 ([1]; Trypanosoma cruzi, Y strain, 24 h after incubation with compounds): 11.4 ± 1.09 µM; EC50 ([2]; Trypanosoma cruzi, 72 h): 3.13 ± 0.87 µM |
| CCC/C=C\C/C=C\CCCCCCCc1cccc(O)c1C(=O)O [Compound 5, 2-Hydroxy-6-(8Z,11Z)-8,11-pentadecadien-1-ylbenzoic acid] | 41.7 ± 5.53 | ~40 |  | no effect | 23.3 ± 2.51 | 6.08 ± 1.16 | not toxic | > 100 |  |
